Data set [1] concerns HDAC (HeLa cell extract). Briefly: Primary assay: deacetylase activity, HeLa cell extract as source of HDAC. Format: biochemical, human. The settings on record: HeLa cell extract; for HDAC Inhibition HeLa, percent / percent HDAC inhibition at the stated concentration: @ 500 nM. The text has this: Briefly, this assay relies on the release of radioactive acetate from a radioactively labelled histone fragment by the action of HDAC enzyme. Test compounds, which inhibit HDAC, reduce the yield of radioactive acetate. Signal (e.g., scintillation counts) measured in the presence and absence of a test compound provide an indication of that compound's ability to inhibit HDAC activity. Decreased activity indicates increased inhibition by the test compound.
The histone fragment was an N-terminal sequence from histone H4, and it was labelled with radioactively labelled acetyl groups using tritiated acetylcoenzyme A (coA) in conjunction with an enzyme which is the histone acetyltransferase domain of the transcriptional coactivator p300. […] The acetylated peptide was then separated from free acetyl coA by size exclusion chromatography on Sephadex G-15 (Sigma G-15-120), using distilled H2O as the mobile phase.
After purification of the radiolabelled histone fragment, it was incubated with a source of HDAC (e.g., an extract of HeLa cells (a rich source of HDAC), recombinantly produced HDAC1 or HDAC2) and any released acetate was extracted into an organic phase and quantitatively determined using scintillation counting. By including a test compound with the source of HDAC, that compound's ability to inhibit the HDAC was determined.
The HeLa cell extract was made from HeLa cells (ATCC Ref. No. CCL-2) by freeze-thawing three times in 60 mM TrisCl pH 8.0, 450 mM NaCl, 30% glycerol. Two cell volumes of extraction buffer were used, and particulate material was centrifuged out (20800 g, 4° C., 10 min). The supernatant extract having deacetylase activity was aliquotted and frozen for storage.
A source of HDAC (e.g., 2 μL of crude HeLa extract, 5 μL of HDAC1 or HDAC2; in elution buffer, as above) was incubated with 3 μL of radioactively labelled peptide along with appropriate dilutions of candidate compounds (1.5 μL) in a total volume of 150 μL of buffer (20 mM Tris pH 7.4, 10% glycerol). The reaction was carried out at 37° C. for one hour, after which the reaction was stopped by adding 20 μL of 1 M HCl/0.4 M sodium acetate. […] Radioactivity was measured using a Tri-Carb 2100TR Liquid Scintillation Analyzer (Packard).
Percent activity (% activity) for each test compound was calculated as: % activity={(S^C−B)/(S^o−B)}×100 wherein S^C denotes signal measured in the presence of enzyme and the compound being tested, S^o denotes signal measured in the presence of enzyme but in the absence of the compound being tested, and B denotes the background signal measured in the absence of both enzyme and compound being tested.

The subject of data set [2] is HeLa cells. The data set is described as follows: Secondary assay: cell proliferation WST-1, HeLa. The settings on record: Homo sapiens, 48 h, read-out: Cell Proliferation Inhibition WST-1 (IC50 unless otherwise specified) HeLa. The format is cell-based. Here is the method:
Compounds with HDAC inhibition activity, as determined using the primary assay, were subsequently evaluated using secondary cell-based assays. The following cell lines were used:
HeLa—Human cervical adenocarcinoma cell line (ATCC ref. No. CCL-2).
Cells were plated in 96-well plates at 3-10×10^3 cells/well in 100 μL of culture medium. The following day, different concentrations of candidate compounds were added and the cells incubated at 37° C. for 48 h. Subsequently, 10 μL/well of WST-1 reagent was added and the cells reincubated for 1 hour. After the incubation time, absorbance was measured.
WST-1 is a tetrazolium salt which is cleaved to formazan dye by cellular enzymes. An expansion in the number of viable cells results in an increase in the overall activity of mitochondrial dehydrogenases in the sample. This augmentation in the enzyme activity leads to an increase in the amount of formazan dye formed, which directly correlates to the number of metabolically active cells in the culture. The formazan dye produced is quantified by a scanning multiwell spectrophotometer by measuring the absorbance of the dye solution at 450 nm wavelength (reference wavelength 690 nm).
Percent activity (% activity) in reducing the number of viable cells was calculated for each test compound as: % activity={(S^C−B)/(S^o−B)}×100 wherein S^C denotes signal measured in the presence of the compound being tested, S^o denotes signal measured in the absence of the compound being tested, and B denotes the background signal measured in blank wells containing medium only.
IC50 values were calculated using the software package Prism 3.0 (GraphPad software Inc., San Diego, Calif.), setting top value at 100 and bottom value at 0.

Where [3] appears, read: read-out: HDAC Inhibition (IC50 unless otherwise specified) HeLa.
Setting [4] is: comparative tables, read-out: HeLa IC50.

Data on 27 molecules can be found in patent publication US7569724B2, “Carbamic acid compounds comprising an amide linkage as HDAC inhibitors” (Topotarget UK Limited, priority 2000, dated 2009).

Each structure is given as a SMILES string. Where a name gives a salt, the structure may show the parent alone. Read-outs that look alike come from different tables or passages of the source.

Molecule `O=C(/C=C/c1ccncc1)NCCCCCC(=O)NO` (as salt: oxalate) [PX106521, (E)-N-(5-Hydroxycarbamoylpentyl)-3-pyridin-4-yl-acrylamide oxalate] yielded a melting point of 168 to 170 °C.
For `O=C(/C=C/c1ccccn1)NCCCCCC(=O)NO` (as salt: oxalate) [PX106528, (E)-N-(5-Hydroxycarbamoylpentyl)-3-pyridin-2-yl-acrylamide oxalate], the melting point fell in the range of 126 to 128 °C.
Same read-out and setting: next, `O=C(/C=C/c1cccnc1)NCCCCCC(=O)NO` (as salt: oxalate) [PX116231, E-N-(5-Hydroxycarbamoyl-pentyl)-3-pyridin-3-yl-acrylamide oxalate]: 157 to 159 °C.
With `O=C(CCCCCNC(=O)CCc1ccco1)NO` [PX105827, 6-(3-Furan-2-yl-propionylamino)-hexanoic acid hydroxyamide], the melting point fell in the range of 127 to 128 °C. Moreover, the “HDAC Inhibition HeLa, percent” value in data set [1] came to 34% @ 500 nM. Moreover, the “percent HDAC inhibition at the stated concentration” value in data set [1] (comparative tables) is on record as 34% @ 500 nM.
The molecule `O=C(CCCCCNC(=O)Cc1ccc(-c2ccccc2)cc1)NO` [PX106488, 6-(2-Biphenyl-4-yl-acetylamino)-hexanoic acid hydroxyamide] had a melting point of 226 to 227 °C. Further, the “HDAC Inhibition HeLa, percent” value in data set [1] is listed as 51% @ 500 nM. Besides, the “percent HDAC inhibition at the stated concentration” value in data set [1] (comparative tables) was 51% @ 500 nM.
For the molecule `O=C(CCCCNC(=O)c1ccc2ccccc2c1)NO` [PX106492, Naphthalene-2-carboxylic acid (4-hydroxycarbamoyl-butyl)-amide], the melting point is 155 to 156 °C. In data set [1], the “HDAC Inhibition HeLa, percent” value is listed as 42% @ 500 nM.
In the case of `O=C(CCCCCNC(=O)c1ccc(I)cc1)NO` [PX106494, N-(5-Hydroxycarbamoylpentyl)-4-iodobenzamide], the melting point fell in the range of 168 to 169 °C. Also, in data set [1] (setting [3]), the IC50 is 100 nM.
As for `O=C(CCCCCNC(=O)c1ccc([N+](=O)[O-])cc1)NO` [PX106495, N-(5-Hydroxycarbamoylpentyl)-4-nitrobenzamide], the melting point lay in the range of 139.5 to 141 °C. In data set [1], the “HDAC Inhibition HeLa, percent” value was determined as 34% @ 500 nM.
Turning to `N#Cc1ccc(C(=O)NCCCCCC(=O)NO)cc1` [PX106497, 4-Cyano-N-(5-hydroxycarbamoylpentyl)-benzamide], the melting point fell in the range of 234 to 236 °C. In data set [1], the “HDAC Inhibition HeLa, percent” value is 30% @ 500 nM.
`O=C(CCCCCNC(=O)CCc1ccccc1)NO` [PX106516, 6-(3-Phenylpropionylamino)hexanoic acid hydroxyamide] registered a melting point of 107 °C. For the same molecule, the “HDAC Inhibition HeLa, percent” value in data set [1] was found to be 27% @ 500 nM.
For the molecule `O=C(/C=C/c1ccccc1)NCCCCCC(=O)NO` [PX106517, N-(5-Hydroxycarbamoylpentyl)-3-phenylacrylamide], the IC50 was determined as 83 nM in data set [1] (setting [3]), 83 nM in data set [1] (setting [4]) and 470 nM in data set [2].
Turning to `O=C(/C=C/c1ccncc1)NCCCCCC(=O)NO` [PX106521, (E)-N-(5-Hydroxycarbamoylpentyl)-3-pyridin-4-yl-acrylamide oxalate], the IC50 in data set [1] (setting [3]) was determined as 138 nM; in data set [2], 46000 nM.
`COc1ccc(/C=C/C=C/C(=O)NCCCCCC(=O)NO)cc1` [PX106524, (2E,4E)-(4-Methoxyphenyl)penta-2,4-dienoic acid (5-hydroxycarbamoylpentyl)-amide] registered a melting point of 152 to 154 °C. Besides, the “HDAC Inhibition HeLa, percent” value in data set [1] amounted to 57% @ 500 nM.
`O=C(CCCCCNC(=O)C/C=C/c1ccccc1)NO` [PX116211, (E)-N-[6-(Hydroxyamino)-6-oxohexyl]-4-phenyl-3-butenamide] yielded a melting point of 127 to 128 °C.
Consider `O=C(/C=C/c1cccc(NC(=O)CCCc2ccccc2)c1)NO` [PX116212, (E)-N-Hydroxy-3-{3-[(4-phenylbutanoyl)amino]phenyl}-2-propenamide], for which the melting point fell in the range of 152 to 153 °C. Also, the “HDAC Inhibition HeLa, percent” value in data set [1] came out at 72% @ 500 nM.
Regarding `COc1ccc(C(=O)NCCCCCC(=O)NO)cc1OC` [PX116213, N-[6-(Hydroxyamino)-6-oxohexyl]-3,4-dimethoxybenzamide], the melting point is 133 °C. Also, the “HDAC Inhibition HeLa, percent” value in data set [1] is recorded as 48% @ 500 nM.
In turn, `O=C(CCCCCNC(=O)Cc1c[nH]c2ccccc12)NO` [PX116214, 6-(2-1H-lndol-3-yl-acetylamino)-hexanoic acid hydroxyamide] yielded a melting point of 130 to 131.5 °C. Also, the “HDAC Inhibition HeLa, percent” value in data set [1] was 35% @ 500 nM.
For `O=C(CCCCCNC(=O)c1ccc(Br)cc1)NO` [PX116215, 4-Bromo-N-(5-hydroxycarbamoyl-pentyl)-benzamide] the same measures were 164 to 166 °C and 70% @ 500 nM.
In turn, `O=C(CCCCC(=O)NCCc1c[nH]c2ccccc12)NO` [PX116217, Hexanedioic acid hydroxyamide [2-(1H-indol-3-yl)-ethyl]-amide] came in with a melting point of 121 to 122.5 °C. For the same molecule, the “HDAC Inhibition HeLa, percent” value in data set [1] was found to be 17% @ 500 nM.
`O=C(CCCCCCC(=O)Nc1cccc2ccccc12)NO` [PX116218, Octanedioic acid hydroxyamide naphthalen-1-ylamide] yielded a melting point of 115 to 116.5 °C. For the same molecule, the IC50 in data set [1] (setting [3]) stood at 33 nM.
For the molecule `O=C(CCCCCCC(=O)NCCc1nc2ccccc2[nH]1)NO` [PX116241, N^1-[2-(1H-Benzimidazol-2-yl)ethyl]-N^8-hydroxyoctanediamide], the “HDAC Inhibition HeLa, percent” value in data set [1] worked out at 39% @ 500 nM. The IC50 in data set [2] is 56000 nM.
On to `O=C(/C=C/c1ccc(NC(=O)Cc2cccc3ccccc23)cc1)NO` [PX116244, (E)-N-Hydroxy-3-(4-{[2-(1-naphthyl)acetyl]amino}phenyl)-2-propenamide], for which the IC50 was 22 nM in data set [1] (setting [3]) and < 310 nM in data set [2].
`O=C(/C=C/c1ccc(-c2cc(C(F)(F)F)cc(C(F)(F)F)c2)o1)NCCCCCC(=O)NO` [PX117224, (E)-3-{5-[3,5-bis(trifluoromethyl)phenyl]-2-furyl}-N-[6-(hydroxyamino)-6-oxohexyl]2-propenamide]: the “HDAC Inhibition HeLa, percent” value in data set [1] was 81% @ 500 nM. Moreover, the IC50 in data set [2] amounted to 26000 nM.
As to `O=C(/C=C/C=C/c1cccc2ccccc12)NCCCCCC(=O)NO` [PX117237, (2E)(4E)-5-Naphthalen-1-yl-penta-2,4-dienoic acid (5-hydroxycarbamoylpentyl)amide], the IC50 amounted to 63 nM in data set [1] (setting [3]), 63 nM in data set [1] (setting [4]) and 17000 nM in data set [2].
With `Cn1cccc1/C=C/C(=O)NCCCCCC(=O)NO` [PX117239, E-3-(1-Methyl-1H-pyrrol-2-yl)-N-(5-hydroxycarbamoylpentyl)-acrylamide], the “HDAC Inhibition HeLa, percent” value in data set [1] came out at 85% @ 500 nM. Moreover, the IC50 in data set [2] was 10000 nM.
For the molecule `C/C(=C\C(=O)NCCCCCC(=O)NO)c1ccccc1` [PX117254, E-3-Phenylbut-2-enoic acid (5-hydroxycarbamoylpentyl)-amide], the values for the IC50 in data set [1] (setting [3]) and in data set [2] were 40 nM and 6600 nM, respectively.
Regarding `O=C(/C=C/C=C/c1ccccc1Cl)NCCCCCC(=O)NO` [PX117255, (2E)(4E)-5-(2-Chlorophenyl)penta-2,4-dienoic acid (5-hydroxycarbamoylpentyl)amide], the figures for the IC50 in data set [1] (setting [3]) and in data set [2] were 50 nM and 18000 nM, respectively.
